Measured values as given in PubChem BioAssay (NCI).
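Exposure lasted 48 hours, with cells grown in 96-well plates and compounds tested at five concentrations. Here, GI50 denotes the concentration required for 50% inhibition of growth. TGI: total growth inhibition.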

What was measured:
Assay in all cases: NCI tumour cell line growth inhibition, 48 h
UACC-62 melanoma = tested on: UACC-62 melanoma
SK-MEL-2 melanoma = tested on: SK-MEL-2 melanoma
RXF 393 renal = tested on: RXF 393 renal
K-562 leukemia = tested on: K-562 leukemia
T-47D breast = tested on: T-47D breast
CAKI-1 renal = tested on: CAKI-1 renal
OVCAR-3 ovarian = tested on: OVCAR-3 ovarian
OVCAR-4 ovarian = tested on: OVCAR-4 ovarian
NCI-H522 lung = tested on: NCI-H522 lung
MCF7 breast = tested on: MCF7 breast

## O=C(O)c1cc(=O)[nH]c(SCc2ccccc2)n1
UACC-62 melanoma
  TGI: > 100 µM
SK-MEL-2 melanoma
  TGI: > 100 µM
RXF 393 renal
  TGI: > 100 µM
K-562 leukemia
  TGI: > 100 µM
T-47D breast
  TGI: > 100 µM
CAKI-1 renal
  TGI: > 100 µM
OVCAR-3 ovarian
  TGI: > 100 µM
OVCAR-4 ovarian
  TGI: > 100 µM
NCI-H522 lung
  TGI: > 100 µM

## C=CCc1cc(-c2cc(CC=C)c(O)c(CNC)c2)cc(CNC)c1O
UACC-62 melanoma
  TGI: 31.9 µM
SK-MEL-2 melanoma
  TGI: 32.9 µM
K-562 leukemia
  TGI: 27.3 µM
OVCAR-3 ovarian
  TGI: 27.9 µM
OVCAR-4 ovarian
  TGI: 30.4 µM
NCI-H522 lung
  TGI: 28.3 µM

## CSc1nc(NC2OCC(OC(C)=O)C(OC(C)=O)C2OC(C)=O)c(N=C(C)C(C)=O)c(=O)[nH]1 (configuration not stated)
SK-MEL-2 melanoma
  TGI: > 100 µM
RXF 393 renal
  TGI: > 100 µM
K-562 leukemia
  TGI: > 100 µM
CAKI-1 renal
  TGI: > 100 µM
OVCAR-4 ovarian
  TGI: > 100 µM

## O=Cc1cc([N+](=O)[O-])no1
UACC-62 melanoma
  TGI: 46.3 µM
MCF7 breast
  TGI: 86.9 µM
SK-MEL-2 melanoma
  TGI: 57.4 µM
RXF 393 renal
  TGI: > 100 µM
K-562 leukemia
  TGI: 38.6 µM
T-47D breast
  TGI: > 100 µM
CAKI-1 renal
  TGI: > 100 µM
OVCAR-3 ovarian
  TGI: > 100 µM
OVCAR-4 ovarian
  TGI: 35.8 µM

## O=C(C[C@H](NC(=O)OCc1ccccc1)C(=O)NC1Cc2ccccc2OC1=O)OCc1ccccc1 (some centres not stated)
MCF7 breast
  TGI: 80.6 µM
SK-MEL-2 melanoma
  TGI: > 100 µM
RXF 393 renal
  TGI: > 100 µM
K-562 leukemia
  TGI: 49.2 µM
T-47D breast
  TGI: > 100 µM
CAKI-1 renal
  TGI: > 100 µM
OVCAR-3 ovarian
  TGI: > 100 µM
NCI-H522 lung
  TGI: > 100 µM

## Cc1nc2c(n1C)C(=O)c1nc(CBr)[nH]c(=O)c1C2=O
UACC-62 melanoma
  TGI: > 100 µM
RXF 393 renal
  TGI: > 100 µM
K-562 leukemia
  TGI: > 100 µM
NCI-H522 lung
  TGI: > 100 µM

## CCCCCCCCCCCCCCCc1ccc(OCC(O)CO)cc1 (configuration not stated)
UACC-62 melanoma
  TGI: 48 µM
SK-MEL-2 melanoma
  TGI: 42.7 µM
RXF 393 renal
  TGI: 35.4 µM
K-562 leukemia
  TGI: > 100 µM
CAKI-1 renal
  TGI: > 100 µM
OVCAR-3 ovarian
  TGI: 49.3 µM
OVCAR-4 ovarian
  TGI: 40.8 µM
NCI-H522 lung
  TGI: 35.4 µM

## CN(C)c1nc(N(C)C)nc(N(C)CN(C)c2ccc(Cl)cc2)n1
UACC-62 melanoma
  TGI: > 100 µM
SK-MEL-2 melanoma
  TGI: > 100 µM
RXF 393 renal
  TGI: > 100 µM
K-562 leukemia
  TGI: > 100 µM
OVCAR-3 ovarian
  TGI: > 100 µM
OVCAR-4 ovarian
  TGI: > 100 µM
NCI-H522 lung
  TGI: > 100 µM

## CS(=O)(=O)OC1CN2CCC1CC2 (configuration not stated)
UACC-62 melanoma
  TGI: > 100 µM
MCF7 breast
  TGI: > 100 µM
SK-MEL-2 melanoma
  TGI: > 100 µM
RXF 393 renal
  TGI: > 100 µM
K-562 leukemia
  TGI: > 100 µM
T-47D breast
  TGI: > 100 µM
CAKI-1 renal
  TGI: > 100 µM
OVCAR-3 ovarian
  TGI: > 100 µM
OVCAR-4 ovarian
  TGI: > 100 µM
NCI-H522 lung
  TGI: > 100 µM

## CCN(CC)CCCC(C)Nc1ccnc2cc3ccccc3cc12 (configuration not stated)
UACC-62 melanoma
  TGI: 49.1 µM
MCF7 breast
  TGI: 39 µM
SK-MEL-2 melanoma
  TGI: 52.4 µM
RXF 393 renal
  TGI: 31.4 µM
K-562 leukemia
  TGI: > 100 µM
T-47D breast
  TGI: 89.7 µM
CAKI-1 renal
  TGI: 42.2 µM
OVCAR-3 ovarian
  TGI: > 100 µM
OVCAR-4 ovarian
  TGI: 7.92 µM
NCI-H522 lung
  TGI: 29 µM

## COc1ccc(C2CC(c3cccc(Nc4ccncc4)c3)=NN2c2ccc(Cl)cc2)cc1 (configuration not stated)
UACC-62 melanoma
  GI50: 1730 nM
  TGI: 3.22 µM
MCF7 breast
  GI50: 1830 nM
  TGI: 3.63 µM
SK-MEL-2 melanoma
  GI50: 2070 nM
  TGI: 4.28 µM
RXF 393 renal
  GI50: 1590 nM
  TGI: 3.03 µM
K-562 leukemia
  GI50: 1600 nM
  TGI: 4.37 µM
CAKI-1 renal
  GI50: 1320 nM
  TGI: 2.64 µM
OVCAR-3 ovarian
  GI50: 1670 nM
  TGI: 3.15 µM
OVCAR-4 ovarian
  GI50: 1580 nM
  TGI: 3.06 µM
NCI-H522 lung
  GI50: 1790 nM
  TGI: 3.71 µM

## CCN1C=C/C(=C\C=C/c2cc[n+](CC)c3ccccc23)c2ccccc21
UACC-62 melanoma
  TGI: 23.8 µM
MCF7 breast
  TGI: 20 µM
SK-MEL-2 melanoma
  TGI: 21.2 µM
RXF 393 renal
  TGI: 70.3 µM
T-47D breast
  TGI: 28 µM
OVCAR-3 ovarian
  TGI: 6.81 µM
OVCAR-4 ovarian
  TGI: 16.9 µM
NCI-H522 lung
  TGI: 23.1 µM
